In publication PMC10854894, “A New Benzo[6,7]oxepino[3,2-b] Pyridine Derivative Induces Apoptosis in Canine Mammary Cancer Cell Lines” (Animals : an Open Access Journal from MDPI, 2024):
Read-outs that look alike come from different tables or passages of the source.

Tests used:
Assay in all cases: MTT cell proliferation/cytotoxicity assay
Format in all cases: cell-based, canine
Details in all cases: Canis lupus familiaris, read-out: Half-Maximal Inhibitory Concentration (IC50)
[1] = test system: REM134 cells
Description: (§1) The cytotoxic effects of the three BZOP derivatives were studied via the 3-(4,5-Dimethyl-2-thiazolyl)-2,5-diphenyl-2H-tetrazolium bromide (MTT) assay. The REM134, CMGT071020, and MDCK cell lines were seeded at a density of 5 × 10^3 cells/well in 96-well plates and allowed to grow for 24 h. They were then treated with the three BZOP derivatives at various concentrations (0–300 µM) for 24 or 48 h, whereas cells treated with the culture medium containing 0.1% dimethyl sulfoxide (DMSO) were used as a negative control as the compounds were dissolved in DMSO. Subsequently, the cells were incubated with 10 µL of an MTT solution (Sigma, St. Louis, MO, USA) for 4 h. After the incubation with MTT solution, 100 µL of a solubilization solution was added to dissolve water-insoluble purple formazan crystals, and the plate was incubated overnight at 37 °C in 5% CO2. The absorbance of the formazan solution was measured using a Synergy H1 hybrid multi-mode microplate reader (BioTek, Winooski, VT, USA) at 570 nm. The experiment was conducted with four replicates, and the relative cell viability (%) of the treated cells was expressed as a percentage relative to the untreated control cells, which were considered to have 100% viability.

[2] = test system: CMGT071020 cells
Description: as §1

[3] = test system: MDCK cells
Description: as §1

[O-][n+]1cccc2c1C=Cc1cccnc1O2 [OPDOb, oxepino(2,3-b:6,7-b’)dipyridine 1-oxide]
IC50 ([1]; REM134, 24 h): > 300 µM
IC50 ([1]; REM134, 48 h): 172 µM
IC50 ([2]; CMGT071020, 24 h): > 300 µM
IC50 ([2]; CMGT071020, 48 h): > 300 µM
IC50 ([3]; 24 h): > 300 µM
IC50 ([3]; 48 h): > 300 µM

[O-][n+]1cccc2c1C=Cc1ccncc1O2 [OPDOc, oxepino(3,2-b:7,6-c’)dipyridine 1-oxide]
IC50 ([1]; REM134, 24 h): > 300 µM
IC50 ([1]; REM134, 48 h): > 300 µM
IC50 ([2]; CMGT071020, 24 h): > 300 µM
IC50 ([2]; CMGT071020, 48 h): > 300 µM
IC50 ([3]; 24 h): > 300 µM
IC50 ([3]; 48 h): > 300 µM
